Data taken from ChEMBL document CHEMBL1132765, “Synthesis and antibacterial activity of new carbapenems containing isoxazole moiety” (2000).
≈ marks a conversion by molar mass, not a printed value.

Tests used:
[1] = molecular target: T1, Dipeptidase 1 (Sus scrofa) (UniProt P22412); test: Relative t1/2 hydrolysis to meropenem by partially purified porcine renal DHP-1; format: functional
T1 sequence (whole entry): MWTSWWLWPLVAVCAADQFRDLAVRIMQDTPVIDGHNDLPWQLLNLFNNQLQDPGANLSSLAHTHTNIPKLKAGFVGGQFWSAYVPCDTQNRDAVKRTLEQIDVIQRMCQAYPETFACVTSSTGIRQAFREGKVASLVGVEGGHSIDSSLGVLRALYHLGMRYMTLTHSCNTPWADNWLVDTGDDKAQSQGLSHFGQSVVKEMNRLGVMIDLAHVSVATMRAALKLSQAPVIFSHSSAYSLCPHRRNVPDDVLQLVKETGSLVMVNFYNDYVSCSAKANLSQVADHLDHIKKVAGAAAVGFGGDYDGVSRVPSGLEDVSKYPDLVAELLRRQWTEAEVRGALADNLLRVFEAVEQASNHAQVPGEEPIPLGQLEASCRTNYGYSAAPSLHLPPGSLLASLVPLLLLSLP

Pseudomonas aeruginosa [2] = test: In vitro antibacterial activity against Pseudomonas aeruginosa 1771M; format: functional
Salmonella typhimurium = test: In vitro antibacterial activity against Salmonella Typhimurium; format: functional, Salmonella enterica subsp. enterica serovar Typhimurium
Streptococcus pyogenes = test: In vitro antibacterial activity against Streptococcus pyogenes 308A; format: functional
Escherichia coli [3] = test: In vitro antibacterial activity against Escherichia coli 078; format: functional
Enterobacter cloacae = test: In vitro antibacterial activity against Enterobacter cloacae 1321E; format: functional
Pseudomonas aeruginosa [4] = test: In vitro antibacterial activity against Pseudomonas aeruginosa 1592E; format: functional
Pseudomonas aeruginosa [5] = test: In vitro antibacterial activity against Pseudomonas aeruginosa 9027; format: functional
Escherichia coli [6] = test: In vitro antibacterial activity against Escherichia coli 1507E; format: functional
Klebsiella aerogenes = test: In vitro antibacterial activity against Klebsiella aerogenes 1522E; format: functional
Staphylococcus aureus [7] = test: In vitro antibacterial activity against Staphylococcus aureus SG511; format: functional
Staphylococcus aureus [8] = test: In vitro antibacterial activity against Staphylococcus aureus 503; format: functional
Staphylococcus aureus [9] = test: In vitro antibacterial activity against Staphylococcus aureus 285; format: functional
[10] = Pseudomonas aeruginosa, read-out: MIC
[11] = Salmonella enterica, read-out: MIC
[12] = Streptococcus pyogenes, read-out: MIC
[13] = Escherichia coli, read-out: MIC
[14] = Enterobacter cloacae, read-out: MIC
[15] = Klebsiella aerogenes, read-out: MIC
[16] = Staphylococcus aureus, read-out: MIC

Row | Structure (SMILES) | Relative t1/2 [1] | MIC (Pseudomonas aeruginosa [2]; [10]) [µg/mL] | MIC (Salmonella typhimurium; [11]) [µg/mL] | MIC (Streptococcus pyogenes; [12]) [µg/mL] | MIC (Escherichia coli [3]; [13]) [µg/mL] | MIC (Enterobacter cloacae; [14]) [µg/mL] | MIC (Pseudomonas aeruginosa [4]; [10]) [µg/mL] | MIC (Pseudomonas aeruginosa [5]; [10]) [µg/mL] | MIC (Escherichia coli [6]; [13]) [µg/mL] | MIC (Klebsiella aerogenes; [15]) [µg/mL] | MIC (Staphylococcus aureus [7]; [16]) [µg/mL] | MIC (Staphylococcus aureus [8]; [16]) [µg/mL] | MIC (Staphylococcus aureus [9]; [16]) [µg/mL] | further results
1 | C[C@@H](O)[C@H]1C(=O)N2C(C(=O)O)=C(S[C@@H]3CN[C@H](C4CC(CO)=NO4)C3)[C@H](C)[C@H]12 (stereo in doubt; form 1) [listing 1 of 2 here] | 1.09 | – | – | – | – | – | – | – | – | – | – | – | – | –
2 | C[C@@H](O)[C@H]1C(=O)N2C(C(=O)O)=C(S[C@@H]3CN[C@H](C4CC[N+](C)(CC(N)=O)O4)C3)[C@H](C)[C@H]12.[Cl-] (some centres undefined) | 1.66 | 0.195 | 0.195 | 0.007 | 0.098 | 0.049 | 0.391 | 0.195 | 0.049 | 0.195 | 0.049 | 0.025 | 0.098 | –
3 | C[C@@H](O)[C@H]1C(=O)N2C(C(=O)O)=C(S[C@@H]3CN[C@H](C4CCN(C)O4)C3)[C@H](C)[C@H]12 (some centres undefined) | 1.27 | 0.195 (≈ 0.491 µM) | 0.098 (≈ 0.247 µM) | 0.007 (≈ 0.0176 µM) | 0.098 (≈ 0.247 µM) | 0.025 (≈ 0.0629 µM) | 0.391 (≈ 0.984 µM) | 0.391 (≈ 0.984 µM) | 0.049 (≈ 0.123 µM) | 0.098 (≈ 0.247 µM) | 0.098 (≈ 0.247 µM) | 0.049 (≈ 0.123 µM) | 0.098 (≈ 0.247 µM) | –
4 | C[C@@H](O)[C@H]1C(=O)N2C(C(=O)O)=C(S[C@@H]3CN[C@H](C4CC(CO)=NO4)C3)[C@H](C)[C@H]12 (stereo in doubt; form 2) [listing 1 of 2 here] | – | – | – | – | – | – | – | – | – | – | – | – | – | MIC (Pseudomonas aeruginosa [2]): 0.195 µg/mL (≈ 0.474 µM); MIC (Salmonella typhimurium): 0.049 µg/mL (≈ 0.119 µM); MIC (Streptococcus pyogenes): 0.013 µg/mL (≈ 0.0316 µM); MIC (Escherichia coli [3]): 0.025 µg/mL (≈ 0.0608 µM); MIC (Enterobacter cloacae): 0.025 µg/mL (≈ 0.0608 µM); MIC (Pseudomonas aeruginosa [4]): 0.391 µg/mL (≈ 0.95 µM); MIC (Pseudomonas aeruginosa [5]): 0.391 µg/mL (≈ 0.95 µM); MIC (Escherichia coli [6]): 0.025 µg/mL (≈ 0.0608 µM); MIC (Klebsiella aerogenes): 0.049 µg/mL (≈ 0.119 µM); MIC (Staphylococcus aureus [7]): 0.098 µg/mL (≈ 0.238 µM); MIC (Staphylococcus aureus [8]): 0.049 µg/mL (≈ 0.119 µM); MIC (Staphylococcus aureus [9]): 0.098 µg/mL (≈ 0.238 µM)
5 | C[C@@H](O)[C@H]1C(=O)N2C(C(=O)O)=C(S[C@@H]3CN[C@H](C(=O)N(C)C)C3)[C@H](C)[C@H]12 [MEROPENEM] | 1 | 0.049 (≈ 0.128 µM) | 0.049 (≈ 0.128 µM) | 0.013 (≈ 0.0339 µM) | 0.025 (≈ 0.0652 µM) | 0.025 (≈ 0.0652 µM) | 0.195 (≈ 0.509 µM) | 0.195 (≈ 0.509 µM) | 0.025 (≈ 0.0652 µM) | 0.049 (≈ 0.128 µM) | 0.195 (≈ 0.509 µM) | 0.098 (≈ 0.256 µM) | 0.195 (≈ 0.509 µM) | –
6 | CCOC(=O)C1=NOC([C@@H]2C[C@H](SC3=C(C(=O)O)N4C(=O)[C@H]([C@@H](C)O)[C@H]4[C@H]3C)CN2)C1 (some centres undefined) | 0.94 | 0.391 (≈ 0.862 µM) | 0.049 (≈ 0.108 µM) | 0.025 (≈ 0.0551 µM) | 0.013 (≈ 0.0287 µM) | 0.025 (≈ 0.0551 µM) | 0.781 (≈ 1.72 µM) | 0.781 (≈ 1.72 µM) | 0.013 (≈ 0.0287 µM) | 0.049 (≈ 0.108 µM) | 0.195 (≈ 0.43 µM) | 0.098 (≈ 0.216 µM) | 0.391 (≈ 0.862 µM) | –
7 | C[C@@H](O)[C@H]1C(=O)N2C(C(=O)O)=C(S[C@@H]3CN[C@H](C4CC(CO)=NO4)C3)[C@H](C)[C@H]12 (stereo in doubt; form 1) [listing 2 of 2 here] | – | 0.098 (≈ 0.238 µM) | 0.098 (≈ 0.238 µM) | 0.013 (≈ 0.0316 µM) | 0.049 (≈ 0.119 µM) | 0.049 (≈ 0.119 µM) | 0.391 (≈ 0.95 µM) | 0.391 (≈ 0.95 µM) | 0.049 (≈ 0.119 µM) | 0.098 (≈ 0.238 µM) | 0.098 (≈ 0.238 µM) | 0.049 (≈ 0.119 µM) | 0.098 (≈ 0.238 µM) | –

More lines, main results first:

Row | Relative t1/2 [1] | MIC (Pseudomonas aeruginosa [2]; [10]) [µg/mL] | MIC (Salmonella typhimurium; [11]) [µg/mL] | MIC (Streptococcus pyogenes; [12]) [µg/mL] | MIC (Escherichia coli [3]; [13]) [µg/mL] | MIC (Enterobacter cloacae; [14]) [µg/mL] | MIC (Pseudomonas aeruginosa [4]; [10]) [µg/mL] | MIC (Pseudomonas aeruginosa [5]; [10]) [µg/mL] | MIC (Escherichia coli [6]; [13]) [µg/mL] | MIC (Klebsiella aerogenes; [15]) [µg/mL] | MIC (Staphylococcus aureus [7]; [16]) [µg/mL] | MIC (Staphylococcus aureus [8]; [16]) [µg/mL] | MIC (Staphylococcus aureus [9]; [16]) [µg/mL] | Structure (SMILES) | further results
8 | 0.78 | – | – | – | – | – | – | – | – | – | – | – | – | C[C@@H](O)[C@H]1C(=O)N2C(C(=O)O)=C(S[C@@H]3CN[C@H](C4CC(CO)=NO4)C3)[C@H](C)[C@H]12 (stereo in doubt; form 2) [listing 2 of 2 here] | –
9 | 1.5 | 0.195 | 0.195 | 0.013 | 0.195 | 0.098 | 0.391 | 0.391 | 0.098 | 0.195 | 0.098 | 0.049 | 0.195 | C[C@@H](O)[C@H]1C(=O)N2C(C(=O)O)=C(S[C@@H]3CN[C@H](C4CC[N+](C)(C)O4)C3)[C@H](C)[C@H]12.[Cl-] (some centres undefined) | –
10 | 0.8 | 0.391 (≈ 0.955 µM) | 0.049 (≈ 0.12 µM) | 0.013 (≈ 0.0317 µM) | 0.025 (≈ 0.0611 µM) | 0.025 (≈ 0.0611 µM) | 1.56 (≈ 3.82 µM) | – | 0.025 (≈ 0.0611 µM) | 0.049 (≈ 0.12 µM) | 0.098 (≈ 0.239 µM) | 0.049 (≈ 0.12 µM) | 0.098 (≈ 0.239 µM) | C[C@@H](O)[C@H]1C(=O)N2C(C(=O)O)=C(S[C@@H]3CN[C@H](c4cc(CO)on4)C3)[C@H](C)[C@H]12 | MIC (Pseudomonas aeruginosa [5]): 1.56 µg/mL (≈ 3.82 µM)
